In patent US12594292B2, “Antiviral prodrugs, intermediate-and long-acting formulations and methods” (priority 2022, dated 2026):
Where two headings read alike, the source gives them in different places.

Experiments:
in vitro [1] = conditions: human
Calu 3 [2] = assay: Antiviral evaluation of cyanobenzyl analogs, Calu 3; format: cell-based
Huh7.5 [3] = assay: Antiviral evaluation of cyanobenzyl analogs, Huh7.5; format: cell-based
in vitro [4] = conditions: human; remark: listed apart in the source
Huh7.5 [5] = assay: Cytotoxicity of cyanobenzyl analogs, Huh7.5
Calu 3 [6] = assay: Cytotoxicity of cyanobenzyl analogs, Calu 3
[7] = tested on: SARS-CoV-2 isolate USA-WA1/2020; assay: SARS-CoV-2 infection in PSC-human lung cells, qRT-PCR (Example 7); format: cell-based; conditions: Severe acute respiratory syndrome coronavirus 2; PSC-human lung cells, MOI 0.01, 48 hours
in vitro [8] = conditions: human; remark: listed apart in the source
in vitro [9] = conditions: African green monkey
in vitro [10] = conditions: human; remark: listed apart in the source
[11] = tested on: SARS-CoV-2 isolate USA-WA1/2020; assay: SARS-CoV-2 infection in Caco-2 cells, qRT-PCR (Example 7); format: cell-based; conditions: Severe acute respiratory syndrome coronavirus 2; Caco-2 cells, MOI 0.01, 48 hours
[12] = CellTiter-Glo luminescent cell viability assay, Vero E6 (Example 3); format: cell-based; conditions: African green monkey
Description: CellTiter-glo luminescent cell viability assay: Approximately 10^4 Vero E6 cells per well were seeded in opaque walled 96 well cell culture plates and incubated overnight. Compounds or controls were added at the indicated concentrations. […] Viability was calculated compared to untreated controls and CC50 values were calculated using Prism 8.
Determination of Cytotoxicity: The 50% cytotoxic concentrations (CC50) were determined with Cell Titer Glo (Cat. #G7570, Promega, Madison, WI) according to the manufacturer's instructions. The calculated CC50 values are shown in the foregoing table.
Relative viability was measured by CellTiter-Glo luminescent cell viability assay, as depicted at FIG. 2.

in vitro [13] = conditions: human; remark: listed apart in the source
[14] = Seven day oral pharmacokinetics in Syrian hamsters; format: in vivo; conditions: after oral administration of ODBG-P-RVn
Description: ODBG-P-RVn in 0.1M sodium carbonate/bicarbonate buffer, pH 9.0, was administered to Syrian Hamsters by oral gavage every 12 hours for seven days. ODBG-P-RVn was present as the sodium salt.
FIG. 4A and FIG. 4B depict the seven day oral pharmacokinetics in Syrian hamsters. Syrian hamsters were given vehicle or ODBG-P-RVn by oral gavage every 12 hours for 7 days. Groups of 3 animals received vehicle or drug at doses of 16.9 and 13.2 mg/kg. Animals were weighed daily and monitored for clinical signs.
Analytical Methods: ODBG-P-RVn: Hamster plasma samples (10 μL) containing ODBG-P-RVn and K2EDTA as the anticoagulant were added to polypropylene tubes containing water (100 μL), internal standard solution (10 μL; 1,000 ng/mL of ODE-P-RVn in ACN:DMF (1:1, v/v)), and 10 μL of ACN:DMF (1:1, v/v). The solutions were mixed, then acidified with phosphoric acid, 85% w/v:water (1:19, v/v; 10 μL), mixed, then diluted with 200 μL of IPA, mixed, then diluted with 500 μL of water, and mixed. The samples were extracted with a Sep-Pak® tC18 96-well solid phase extraction plate (25 mg; Waters, Milford, MA). Extraction occurred under positive pressure conditions using nitrogen. Samples were washed serially with 1 mL of water:acetonitrile:formic acid (475:25:0.5, v/v/v) and 0.4 mL of water:acetonitrile:formic acid (350:150:0.5, v/v/v) before being serially eluted with 100 μL and 150 μL of water:{acetonitrile:isopropyl alcohol (1:1, v/v)}:formic acid:ammonium formate:citric acid solution, 2% w/v (15:85:0.1:0.1:0.1, v/v/v/w/v). The citric acid solution was prepared as water:citric acid monohydrate (20:0.4, v/w). After elution, 100 μL of water was added to each sample. The ODBG-P-RVn extracts were analyzed using an Agilent 1200 HPLC system (Agilent, Santa Clara, CA) coupled to an API5500 mass analyzer (SCIEX, Foster City, CA). Analytes were chromatographically separated using a Dacapo DX-C18 MF column (100×2 mm, 2.5 μm; ImtaktUSA, Portland, OR) using a mobile phase system consisting of Mobile Phase A (water:formic acid:[water:ammonium formate:citric acid (25:5:0.5, v/w/w)](1.000:1:1, v/v/v) and Mobile Phase B (acetonitrile:isopropyl alcohol:formic acid:[water:ammonium formate:citric acid (25:5:0.5, v/w/w)](800:200:1:1, v/v/v/v). The total analytical run time was 4.5 minutes. The mobile phase was nebulized using heated nitrogen in a Turbo-V source/interface set to electrospray positive ionization mode. The ionized compounds were detected using multiple reaction monitoring with transitions m/z 788.4>229 (V2043) and 668.4>467.2 (V2041). This method is applicable for measuring ODBG-P-RVn concentrations ranging from 6.25 to 3,000 ng/mL using 10.0 μL of plasma for extraction. The peak areas of ODBG-P-RVn and RVn were acquired using Analyst v. 1.6.2 (SCIEX, Framingham, MA). The calibration curve was obtained by fitting the peak area ratios of the analyte/I.S. and the standard concentrations to a linear equation with 1/x2 weighting, using Analyst. The equation of the calibration curve was then used to interpolate the concentrations of the analyte in the samples using their peak area ratios. The peak areas used for the calculations were not rounded.
The solutions were mixed and centrifuged at 16,000 g for five minutes. […] The GS-441524 extracts were analyzed using an Acquity UPLC system (Waters, Milford, MA) coupled to a G2-S QTof mass analyzer (Waters, Milford, MA). […]

in vitro [15] = conditions: human; remark: listed apart in the source

Question: Which CC50 (in vitro [1]) does the source give for `CCCCCCCCCCCCCCCCCCOC[C@H](COP(=O)(O)OC[C@H]1O[C@@](C#N)(c2ccc3c(N)ncnn23)[C@@H](O)C1O)OCc1ccccc1C#N` (some centres unmarked) [OD(2-CN-Bn)G-P-RVn, 1-O-Octadecyl-2-O-(2-cyanobenzyl)-sn-glyceryl-phospho-RVn] here?
Answer: > 100000 nM

Question: What about the SI (Calu 3 [2]; Calu 3) of the same compound?
Answer: 909

Question: What about the EC50 (Calu 3 [2]; Calu-3) of the same compound?
Answer: 91 ± 25 nM

Question: And the EC90 (Calu 3 [2]; Calu-3)?
Answer: 186 ± 47 nM

Question: And the EC50 (Huh7.5 [3])?
Answer: 10.2 ± 17 nM

Question: And the EC90 (Huh7.5 [3])?
Answer: 281 ± 30 nM

Question: What about the SI (Huh7.5 [3]) of the same compound?
Answer: >980

Question: And the CC50 (in vitro [4])?
Answer: 82800 nM

Question: What does the source list for `CCCCCCCCCCCCCCCCCCOC[C@H](COP(=O)(O)OC[C@H]1O[C@@](C#N)(c2ccc3c(N)ncnn23)[C@H](O)[C@@H]1O)OCc1cccc(C#N)c1` [OD(3-CN-Bn)G-P-RVn, 1-O-Octadecyl-2-O-(3-cyanobenzyl)-sn-glyceryl-phospho-RVn]?
Answer: CC50 (Huh7.5 [5]): 49600 nM; SI (Calu 3 [2]; Calu 3): 1810; EC50 (Calu 3 [2]; Calu 3, read-out: EC50): 34 ± 7 nM; EC90 (Calu 3 [2]; Calu 3, read-out: EC90): 65 ± 36 nM; SI (Huh7.5 [3]): 2066; EC50 (Huh7.5 [3]; read-out: EC50): 24 ± 6 nM; EC90 (Huh7.5 [3]; read-out: EC90): 77 ± 17 nM; CC50 (Calu 3 [6]): 61600 nM

Question: What does the source list for `N#C[C@@]1(c2ccc3c(N)ncnn23)O[C@H](CO)[C@@H](O)[C@H]1O` [RVn, 2-C-(4-aminopyrrolo[2,1-f][1,2,4]triazin-7-yl)-2,5-anhydro-D-altrononitrile, reference compound]?
Answer: EC90 [7]: 2620 nM; CC50 at 48.5 h (in vitro [8]): > 100000 nM; CC50 at 48.5 h (in vitro [9]): > 100000 nM; CC50 at 48.5 h (in vitro [10]): > 100000 nM; EC90 [11]: 1750 nM; CC50 at 48.5 h [12]: > 100000 nM; CC50 at 48.5 h (in vitro [13]): > 100000 nM; plasma levels of RVn versus EC90 for RVn in PSC lung cells and Vero E6 cells [14]: less than the EC90; time of peak plasma levels of RVn, the nucleoside metabolite of ODBG-P-RVn [14]: 3 h; CC50 at 48.5 h (in vitro [15]): > 100000 nM
